In patent US10577378B2, “EIF4A-inhibiting compounds and methods related thereto” (eFFECTOR Therapeutics, Inc., priority 2015, dated 2020):

These compounds were tested on MDA-MB-231 human breast cancer cells (assay: Cell proliferation assay (CellTiter-Glo, 72 hours treatment)). Settings: Homo sapiens; MDA-MB-231 cells, 72 hours at 37° C., CellTiter-Glo; read-out: MDA-MB-231 cell proliferation assay (IC50).
Type: cell-based
Outline: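 IC50 categories: under 100 nM +++, 100–1000 nM ++, above 1000 nM +, derived by sigmoidal curve fitting of CellTiter-Glo luminescence. Cells plated at 2,500 per well, dosed the following day and exposed 72 h at 37 °C versus DMSO control.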

SMILES	IC50
CN(C)C(=O)[C@H]1[C@@H](O)[C@@]2(O)c3ccc(C#N)cc3S[C@@]2(c2ccc(C#N)cc2)[C@@H]1c1ccccc1 (racemic) [13F, Rac-(1R,2R,3S,3aR,8bS)-6-cyano-3a-(4-cyanophenyl)-1,8b-dihydroxy-N,N-dimethyl-3-phenyl-2,3,3a,8b-tetrahydro-1H-benzo[b]cyclopenta[d]thiophene-2-carboxamide]	> 1000 nM
COc1cncc2c1[C@]1(O)[C@H](O)[C@H](CN(C)Cc3cccnc3)[C@@H](c3ccccc3)[C@]1(c1ccc(C#N)cc1)O2 [278F, 4-((4bS,5R,6S,7S,7aR)-4b,5-dihydroxy-4-methoxy-6-((methyl(pyridin-3-ylmethyl)amino)methyl)-7-phenyl-4b,5,6,7-tetrahydro-7aH-cyclopenta[4,5]furo[2,3-c]pyridin-7a-yl)benzonitrile]	100 to 1000 nM
COc1nc(Cl)cc2c1[C@]1(O)[C@H](O)[C@H](CN(C)C)[C@@H](c3ccccc3)[C@]1(c1ccc(C#N)cc1)O2 (single isomer, unassigned) [140F]	< 100 nM
COc1nccc2c1[C@]1(O)[C@H](O)[C@H](CN(C)C)[C@@H](c3ccccc3)[C@]1(c1ccc(C(F)(F)F)cc1)O2 (racemic) [149F, Rac-(5aR,6S,7S,8R,8aS)-7-((dimethylamino)methyl)-1-methoxy-6-phenyl-5a-(4-(trifluoromethyl)phenyl)-5a,6,7,8-tetrahydro-8aH-cyclopenta[4,5]furo[3,2-c]pyridine-8,8a-diol]	> 1000 nM
O[C@@H]1C2(CC2)[C@@H](c2ccccc2)[C@]2(c3ccc(Br)cc3)Oc3cc(Cl)cnc3[C@]12O (racemic) [92F, Rac-(5aR,6R,8R,8aS)-5a-(4-bromophenyl)-3-chloro-6-phenyl-5a,6-dihydrospiro[cyclopenta[4,5]furo[3,2-b]pyridine-7,1′-cyclopropane]-8,8a(8H)-diol]	> 1000 nM
COc1nc(C#N)cc2c1[C@]1(O)[C@H](O)[C@H](CN(C)C)[C@@H](c3ccccc3)[C@]1(c1ccc(Cl)cc1)O2 (single isomer, unassigned) [145F]	< 100 nM
COc1cncc2c1[C@]1(O)[C@H](O)[C@H](CN3CCOCC3)[C@@H](c3ccccc3)[C@]1(c1ccc(C#N)cc1)O2 (single isomer, unassigned) [110F]	100 to 1000 nM
COC(=O)C1(F)[C@@H](O)[C@@]2(O)c3ncc(Cl)cc3O[C@@]2(c2ccc(C#N)cc2)[C@@H]1c1ccccc1 (mixture of isomers) [59F, Rac-methyl (5aR,6S,8S,8aS)-3-chloro-5a-(4-cyanophenyl)-7-fluoro-8,8a-dihydroxy-6-phenyl-5a,7,8,8a-tetrahydro-6H-cyclopenta[4,5]furo[3,2-b]pyridine-7-carboxylate]	> 1000 nM
COc1cncc2c1[C@]1(O)[C@H](O)[C@H](CN(C)C)[C@@H](c3ccccc3)[C@]1(c1ccc(C)cc1)O2 (single isomer, unassigned) [256F]	< 100 nM
CN(C)C(=O)[C@H]1[C@@H](O)[C@@]2(O)c3ncc(Cl)cc3O[C@@]2(c2ccc(C(F)(F)F)cc2)[C@@H]1c1ccccc1 (single isomer, unassigned) [8F]	100 to 1000 nM
COc1cncc2c1[C@]1(O)[C@@H](CNCc3ccncc3)[C@H](CO)[C@@H](c3ccccc3)[C@]1(c1ccc(C#N)cc1)O2 (racemic) [188F, Rac-4-((4bR,5R,6R,7S,7aR)-4b-hydroxy-6-(hydroxymethyl)-4-methoxy-7-phenyl-5-(((pyridin-4-ylmethyl)amino)methyl)-4b,5,6,7-tetrahydro-7aH-cyclopenta[4,5]furo[2,3-c]pyridin-7a-yl)benzonitrile]	< 100 nM
COc1cc2c(c(OC)n1)[C@]1(O)[C@H](O)[C@H](CN(C)C)[C@@H](c3ccccc3)[C@]1(c1ccc(Br)cc1)O2 (racemic) [230F, Rac-(5aR,6S,7S,8R,8aS)-5a-(4-bromophenyl)-7-((dimethylamino)methyl)-1,3-dimethoxy-6-phenyl-5a,6,7,8-tetrahydro-8aH-cyclopenta[4,5]furo[3,2-c]pyridine-8,8a-diol]	< 100 nM
C[C@H]1[C@@H](O)[C@@]2(O)c3ncc(Cl)cc3O[C@@]2(c2ccc(Br)cc2)[C@@H]1c1ccccc1 (racemic) [57F, Rac-(5aR,6S,7R,8R,8aS)-5a-(4-bromophenyl)-3-chloro-7-methyl-6-phenyl-5a,6,7,8-tetrahydro-8aH-cyclopenta[4,5]furo[3,2-b]pyridine-8,8a-diol]	> 1000 nM
N#Cc1ccc([C@@]23Oc4cc(Cl)cnc4[C@]2(O)[C@@H](CN2CCOCC2)C[C@H]3c2ccccc2)cc1 (racemic) [178F, Rac-4-((5aR,6S,8R,8aR)-3-chloro-8a-hydroxy-8-(morpholinomethyl)-6-phenyl-6,7,8,8a-tetrahydro-5aH-cyclopenta[4,5]furo[3,2-b]pyridin-5a-yl)benzonitrile]	< 100 nM
COC(=O)[C@H]1[C@@H](O)[C@@]2(O)c3c(cc(Cl)nc3OC)O[C@@]2(c2ccc(Br)cc2)[C@@H]1c1ccccc1 (racemic) [136F, Rac-Methyl (5aR,6S,7R,8R,8aS)-5a-(4-bromophenyl)-3-chloro-8,8a-dihydroxy-1-methoxy-6-phenyl-5a,7,8,8a-tetrahydro-6H-cyclopenta[4,5]furo[3,2-c]pyridine-7-carboxylate]	< 100 nM
COc1cncc2c1[C@]1(O)[C@H](O)[C@H](C(=O)NCC(F)F)[C@@H](c3ccccc3)[C@]1(c1ccc(Br)cc1)O2 (racemic) [116F, Rac-(4bS,5R,6R,7S,7aR)-7a-(4-bromophenyl)-N-(2,2-difluoroethyl)-4b,5-dihydroxy-4-methoxy-7-phenyl-4b,6,7,7a-tetrahydro-5H-cyclopenta[4,5]furo[2,3-c]pyridine-6-carboxamide]	< 100 nM
COc1cncc2c1[C@]1(O)[C@H](O)[C@H](C(=O)N(C)C)[C@@H](c3ccccc3)[C@]1(c1ccc(C#N)cc1)O2 (single isomer, unassigned) [64F]	< 100 nM
OC[C@@H]1C[C@@H](c2ccccc2)[C@]2(c3ccc(Br)cc3)Oc3cc(Cl)cnc3[C@]12O (racemic) [166F, rac-(5aR,6S,8S,8aR)-5a-(4-bromophenyl)-3-chloro-8-(hydroxymethyl)-6-phenyl-5a,6,7,8-tetrahydro-8aH-cyclopenta[4,5]furo[3,2-b]pyridin-8a-ol]	100 to 1000 nM
N#Cc1ccc([C@@]23Oc4cc(Cl)cnc4[C@]2(O)[C@@H](CN)C[C@H]3c2ccccc2)cc1 (racemic) [175F, Rac-4-((5aR,6S,8R,8aR)-8-(aminomethyl)-3-chloro-8a-hydroxy-6-phenyl-6,7,8,8a-tetrahydro-5aH-cyclopenta[4,5]furo[3,2-b]pyridin-5a-yl)benzonitrile]	< 100 nM
N#C[C@@H]1C[C@@H](c2ccccc2)[C@]2(c3ccc(Br)cc3)Oc3cc(Cl)cnc3[C@]12O (racemic) [47F, Rac-(5aR,6S,8S,8aR)-5a-(4-bromophenyl)-3-chloro-8a-hydroxy-6-phenyl-5a,7,8,8a-tetrahydro-6H-cyclopenta[4,5]furo[3,2-b]pyridine-8-carbonitrile]	> 1000 nM
COc1cncc2c1[C@]1(O)[C@H](O)[C@H](CN(C)CCO)[C@@H](c3ccccc3)[C@]1(c1ccc(C#N)cc1)O2 (racemic) [75F, rac-4-((4bS,5R,6S,7S,7aR)-4b,5-dihydroxy-6-(((2-hydroxyethyl)(methyl)amino)methyl)-4-methoxy-7-phenyl-4b,5,6,7-tetrahydro-7aH-cyclopenta[4,5]furo[2,3-c]pyridin-7a-yl)benzonitrile]	100 to 1000 nM
COC(=O)[C@@H]1[C@@H](c2ccccc2)[C@]2(c3ccc(Br)cc3)Oc3cc(Cl)cnc3[C@]2(O)[C@H]1C#N (racemic) [49F, Rac-methyl (5aR,6S,7R,8R,8aR)-5a-(4-bromophenyl)-3-chloro-8-cyano-8a-hydroxy-6-phenyl-5a,7,8,8a-tetrahydro-6H-cyclopenta[4,5]furo[3,2-b]pyridine-7-carboxylate]	100 to 1000 nM
